Counter-ions that a name gives are not always drawn.
Experiments:
D2 receptor = biological target: T1, D2 receptor (Rattus norvegicus, UniProt P61169); assay: biochemical; type: binding; settings: rat striated membranes; [3H]-domperidone 0.3 nM; BSA 0.01%; 37°C for 30 minutes; read-out: Affinity [K1 (nM)] D2 [^3H]-domperidone
T1 construct: from tissue; host or cells: rat brain striatum membranes
Experimental: The tissue were homogenized in 50 mM Tris/HCl buffer at pH 7.4 (1:100 w/v).
The homogenate was centrifuged and the pellet resuspended, recentrifuged and resuspended again in 50 mM Tris/HCl buffer at pH 7.4 containing 120 mM NaCl, 5mM KCl, 2 mM CaCl2 and 1 mM MgCl2.
Furthermore, bovine serum albumine (BSA) (0.01%) was added.
The mixture was incubated at 37°C for 30 minutes for each concentration of tested compounds.

D1 receptor = biological target: T2, D1 receptor (Rattus norvegicus, UniProt P18901); assay: biochemical; type: binding; settings: rat striated membranes; 0.2 nM [3H]-SCH23390; 37°C for 20 minutes; read-out: Affinity [K1 (nM)] D1 [^3H]-SCH23390
T2 construct: from tissue; host or cells: rat brain striatum membranes
Experimental: The conditions of standard incubation (volume 1000 µl) for the test in which [^3H]-SCH23390 was used were the following: 50 mM Tris/HCl buffer (pH.7.4), 0.2 nM [^3H]-SCH23390, a membrane preparation of 130-140 µg proteins/ml.
The mixture was incubated with different concentrations of the tested compounds at 37°C for 20 minutes, filtered under vacuum through Whatman GF/C filters and then washed 4 times with 5 ml of 50 mM Tris/HCl buffer (pH 7.4) cooled with ice.

D1-like (RSA) = assay: D1-like activity in the Rabbit Splenic Artery (RSA) test, isolated arterial rings; settings: agonist activity; arterial preparations contracted with U46619 0.1 µM; compounds cumulatively administered
Experimental: Arterial rings were prepared according to Semeraro et al., Naunyn. Schmied. Arch. Pharmacol., 1990, 342 539. […] The tested compounds were cumulatively administered. Dopamine and dopexamine were used as reference substances.

D2-like (REA) = assay: D2-like activity in the Rabbit Ear Artery (REA) test, isolated arterial rings; design: species or system Male New Zealand rabbits; settings: agonist activity; electrically stimulated ear artery rings (10 Hz, 1 msec, 40-80 mA); compounds cumulatively administered
Experimental: Arterial rings were prepared according to the method described by […] al., Science, 1978, 443 199, modified as follows. Male New Zealand rabbits weighing 2.5-3 Kg were sacrificed by intravenous injection of an excess of pentobarbital sodium and exsanguinated. The two ears were taken away and the central ear artery was dissected into 3 mm long rings. These preparations were set up in a 25 ml organ bath containing Krebs solution (mM/l): NaCl 118, KCl 4.7, CaCl2 2.5, MgSO4 1.2, NaHCO3 25, KH2PO4 1.2, glucose 11.1, equilibrated with 95% O2-5% CO2 and maintained at 35±1°C. Krebs solution was medicated with EDTA (10 μM) to prevent cathecolamine oxydation, desipramine (0.1 μM) and corticosterone (30 μM), to block neuronal and extraneuronal cathecolamine uptake. The preparations were electrically stimulated (10 Hz, 1 msec, 40-80 mA, 500 msec duration) at 5 minutes intervals. The tested compounds were cumulatively administered. Dopamine and dopexamine were used as reference substances.

[1] = Fitton and Benfield, Drugs, 39(2), 308-330 (1990); cited from earlier work

T2 sequence (P18901 whole entry): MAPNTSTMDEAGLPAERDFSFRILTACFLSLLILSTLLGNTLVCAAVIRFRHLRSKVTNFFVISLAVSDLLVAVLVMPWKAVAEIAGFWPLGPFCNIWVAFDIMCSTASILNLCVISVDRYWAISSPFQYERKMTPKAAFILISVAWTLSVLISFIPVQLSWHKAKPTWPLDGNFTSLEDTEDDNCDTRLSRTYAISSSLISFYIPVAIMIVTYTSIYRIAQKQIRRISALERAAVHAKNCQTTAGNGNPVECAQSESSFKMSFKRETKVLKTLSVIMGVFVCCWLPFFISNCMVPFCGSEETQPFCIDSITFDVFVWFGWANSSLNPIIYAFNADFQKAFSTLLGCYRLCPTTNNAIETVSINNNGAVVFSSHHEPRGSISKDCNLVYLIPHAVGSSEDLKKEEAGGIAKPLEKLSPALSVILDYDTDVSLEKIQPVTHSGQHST
T1 sequence (P61169 whole entry): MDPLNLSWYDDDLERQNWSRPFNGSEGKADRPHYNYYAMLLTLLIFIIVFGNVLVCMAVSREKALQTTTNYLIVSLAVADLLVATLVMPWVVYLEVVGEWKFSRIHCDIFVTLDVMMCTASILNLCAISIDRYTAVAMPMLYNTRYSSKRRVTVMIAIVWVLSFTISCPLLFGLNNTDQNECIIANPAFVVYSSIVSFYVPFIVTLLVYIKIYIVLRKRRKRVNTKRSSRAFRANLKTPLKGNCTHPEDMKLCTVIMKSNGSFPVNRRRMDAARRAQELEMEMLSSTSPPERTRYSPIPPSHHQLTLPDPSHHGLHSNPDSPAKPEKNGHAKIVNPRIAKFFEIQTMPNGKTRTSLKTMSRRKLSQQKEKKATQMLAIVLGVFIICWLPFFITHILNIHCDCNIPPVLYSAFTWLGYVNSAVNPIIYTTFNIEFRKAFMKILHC

Ki (D2 receptor) [nM] | Ki (D1 receptor) [nM] | SMILES | D1-like (RSA) pD2 (D1-like (RSA)) | D2-like (REA) pD2 (D2-like (REA)) | absorption when administered by oral route [1]
0.4 | 33 | Br.Br.CCCN(CCCCCCNCCc1ccccc1O)[C@H]1CCc2c(ccc(O)c2O)C1 [Compound 15, (S)-N-propyl-N-[6-[2-(2-hydroxyphenyl)ethylamino]hexyl]-5,6-dihydroxy-1,2,3,4-tetrahydro-2-naphthylamine dihydrobromide] | 7.3 | 9.2 | –
– | – | CCCN(CCCCCCNCCCc1ccccc1)[C@H]1CCc2c(ccc(O)c2O)C1 [Compound 12, (S)-N-propyl-N-[6-(3-phenylpropylamino)hexyl]-5,6-dihydroxy-1,2,3,4--tetrahydro-2-naphthylamine dihydrochloride] | 7.1 | 8.6 | –
1 | 361 | CCCN(CCCCNCCc1ccccc1)[C@H]1CCc2c(ccc(O)c2O)C1 [Compound 8, (S)-N-propyl-N-[4-(2-phenyletylamino)butyl]-5,6-dihydroxy-1,2,3,4--tetrahydro-2-naphthylamine dihydrobromide] | 6.4 | 8.2 | –
0.9 | 107 | CCCN(CCCCCCN(CCC)[C@H]1CCc2c(ccc(O)c2O)C1)CCc1ccc(O)cc1 [Compound 18, (S)-N-propyl-N-[2-(4-hydroxyphenyl)ethyl]-N'-propyl-N'-[2-(5,6-dihydroxy-1,2,3,4-tetrahydro)naphthyl]-1,6-hexandiamine dihydrobromide] | 6.6 | 9.2 | –
– | – | NCCc1ccc(O)c(O)c1 [Dopamine, reference compound] | 6.4 | 7.8 | not absorbed
0.5 | 89 | CCCN(CCCCCCNCCc1ccccc1)[C@H]1CCc2cc(O)c(O)cc2C1 [Compound 11, (S)-N-propyl-N-[6-(2-phenylethylamino)hexyl]-6,7-dihydroxy-1,2,3,4--tetrahydro-2-naphthylamine dihydrochloride] | 6.2 | 8.4 | –
0.3 | 69 | CCCN(CCCCCCN(C)CCc1ccccc1)[C@H]1CCc2c(ccc(O)c2O)C1 [Compound 5, (S)-N-methyl-N-(2-phenylethyl)-N'-propyl-N'-[2-(5,6-dihydroxy-1,2,3,4-tetrahydro)naphthyl]-1.6-hexandiamine dihydrobromide] | – | – | –
0.2 | 10 | Br.Br.CCCN(CCCCCCNCCc1ccc(O)cc1)[C@H]1CCc2c(ccc(O)c2O)C1 [Compound 2, (S)-N-propyl-N-[6-[2-(4-hydroxyphenyl)ethylamino)hexyl]-5,6-dihydroxy-1,2,3,4-tetrahydro-2-naphthylamine dihydrobromide] | 8.4 | 8.8 | –
0.5 | 21 | Br.Br.CCCN(CCCCCCNCCc1cccc(O)c1)[C@H]1CCc2c(ccc(O)c2O)C1 [Compound 1, (S)-N-propyl-N-[6-[2-(3-hydroxyphenyl)ethylamino)-hexyl]-5,6-dihydroxy-1,2,3,4-tetrahydro-2-naphthylamine dihydrobromide] | 8.1 | 8.8 | –
1220 | – | Oc1ccc(CCNCCCCCCNCCc2ccccc2)cc1O [Dopexamine, dopexamine, reference compound] | 6.1 | 6.3 | not absorbed
– | – | Br.Br.CCCN(CCCCCCNCCc1ccc(O)cc1)[C@@H]1CCc2cc(O)c(O)cc2C1 [Compound 14, (R)-N-propyl-N-[6-[2-(4-hydroxyphenyl)ethylamino]hexyl]-6,7-dihydroxy-1,2,3,4-tetrahydro-2-naphthylamine dihydrobromide] | 7.9 | 9.9 | –
0.5 | 21 | Br.Br.CCCN(CCCCCCNCCc1ccc(O)c(O)c1)[C@H]1CCc2c(ccc(O)c2O)C1 [Compound 3, (S)-N-propyl-N-[6-[2-(3,4-dihydroxyphenyl)ethylamino)hexyl]-5,6-dihydroxy-1,2,3,4-tetrahydro-2-naphthylamine dihydrobromide] | 8.1 | 9.5 | –
0.1 | 40 | CCCN(CCCCCCNCCc1ccccc1)[C@H]1CCc2c(ccc(O)c2O)C1.Cl.Cl [Compound 10, (S)-N-propyl-N-[6-(2-phenylethylamino)hexyl]-5,6-dihydroxy-1,2,3,4-tetrahydro-2-naphthylamine dihydrochloride] | 7.2 | 9.2 | –
0.8 | 43 | Br.Br.CCCN(CCCCCCNCCc1ccc(O)c(O)c1)[C@@H]1CCc2cc(O)c(O)cc2C1 [Compound 13, (R)-N-propyl-N-[6-[2-(3,4-dihydroxyphenyl)ethylamino]hexyl]-6,7-dihydroxy-1,2,3,4-tetrahydro-2-naphthylamine dihydrobromide] | 7.7 | 9.4 | –
0.1 | 33 | Br.Br.CCCN(CCCCCCNCCc1cc(O)cc(O)c1)[C@H]1CCc2c(ccc(O)c2O)C1 [Compound 4, (S)-N-propyl-N-[6-[2-(3,5-dihydroxyphenyl)ethylamino)hexyl]-5,6-dihydroxy-1,2,3,4-tetrahydro-2-naphthylamine dihydrobromide] | 8.5 | 10.6 | –
– | – | Br.Br.CCCN(CCCCCCNCCc1ccc(O)cc1)[C@H]1CCc2c(O)cccc2C1 [Compound 9, (S)-N-propyl-N-[6-[2-(4-hydroxyphenyl)ethylamino]hexyl]-5-hydroxy-1,2,3,4-tetrahydro-2-naphthylamine dihydrobromide] | – | 9.1 | –
– | – | Br.Br.CCCN(CCCCCCNCCc1ccc(O)c(O)c1)[C@H]1CCc2c(O)cccc2C1 [Compound 6, (S)-N-propyl-N-[6-[2-(3,4-dihydroxyphenyl)ethylamino]hexyl]-5-hydroxy-1,2,3,4-tetrahydro-2-naphthylamine dihydrobromide] | 7.5 | 9.6 | –
0.5 | 27 | CCCN(CCCCCCCCNCCc1ccc(O)c(O)c1)[C@H]1CCc2c(ccc(O)c2O)C1 [Compound 7, dihydrobromide] | – | – | –

— patent EP0781268B1, “DERIVATIVES OF 2-AMINO-1,2,3,4-TETRAHYDRONAPHTHALENE ACTIVE ON THE CARDIOVASCULAR SYSTEM” (ZAMBON GROUP S.p.A., priority 1994, dated 1996)
